Assay results reported in patent US20230174538A1, “Tricyclic heterocycles” (Merck Patent GmbH, priority 2020, published 2023).

Test system: YAP-TEAD interaction
Experiment: SK-HEP-1 reporter assay (8xTEAD responsive elements driving NanoLuc luciferase)
Assay type: cell-based
Conditions: Homo sapiens, SK-HEP1, SK-HEP-1 reporter assay
Procedure, shortened: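 SK-HEP-1 cells stably carrying an 8×TEAD-element NanoLuc reporter were treated in duplicate with 10-point dilutions from a top final 30 μM (0.3% DMSO). After 24 h at 37 °C, luciferase activity was read by luminescence with NanoGlo lysis/substrate reagent, and IC50 values were derived.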

Compared with `Cn1cc2c3cc(C(=O)NC4C5CCOC5C4(C)C)ccc3n(-c3ccc(C(F)(F)F)cc3)c2n1` (stereo not shown) [Example B87, N-(7,7-dimethyl-2-oxabicyclo[3.2.0]heptan-6-yl}-2-methyl-8-[4-(trifluoromethyl)phenyl]-2H,8H-pyrazolo[3,4-b]indole-5-carboxamide], `Cn1cc2c3cc(C(=O)N[C@@H]4C[C@@H]5OCCC[C@@H]54)ccc3n(-c3ccc(C(F)(F)F)cc3)c2n1` [B114^] is higher in IC50: 100 to 10000 nM for the first, greater than 10000 nM for the second.

First: COc1cc(C(C)NC(=O)c2ccc3c(c2)c2cn(C)nc2n3-c2ccc(C(F)(F)F)cc2)sn1 (stereo not shown) [Example B83, N-[1-(3-methoxy-1,2-thiazol-5-yl)ethyl]-2-methyl-8-[4-(trifluoromethyl)phenyl]-2H,8H-pyrazolo[3,4-b]indole-5-carboxamide]
Second: CCC(NC(=O)c1ccc2c(c1)c1cn(C)nc1n2-c1ccc(C(F)(F)F)cc1)c1c[nH]nn1 (stereo not shown) [Example B3, 2-methyl-N-[1-(1H-1,2,3-triazol-4-yl)propyl]-8-[4-(trifluoromethyl)phenyl]-2H,8H-pyrazolo[3,4-b]indole-5-carboxamide]
The IC50 of the first is higher: 100 to 10000 nM for the first, 10 to 100 nM for the second. The second is the more potent here.

Compared with `CN(Cc1conc1C1CC1)C(=O)c1ccc2c(c1)c1cn(C)nc1n2-c1ccc(C(F)(F)F)cc1` [Example B88, N-[(3-cyclopropyl-1,2-oxazol-4-yl)methyl]-N,2-dimethyl-8-[4-(trifluoromethyl)phenyl]-2H,8H-pyrazolo[3,4-b]indole-5-carboxamide], `Cn1cc2c3cc(C(=O)NCCc4noc(C5CC5)n4)ccc3n(-c3ccc(C(F)(F)F)cc3)c2n1` [B125^] is lower in IC50: greater than 10000 nM for the first, 100 to 10000 nM for the second. The second is the more potent here.

`Cn1cc2c3cc(C(=O)NC4(CCF)CCOCC4)ccc3n(-c3ccc(C(F)(F)F)cc3)c2n1` [B112^] and `CC1CN(CCNC(=O)c2ccc3c(c2)c2cn(C)nc2n3-c2ccc(C(F)(F)F)cc2)CCO1` (stereo not shown) [Example B78, 2-methyl-N-[2-(2-methylmorpholin-4-yl)ethyl]-8-[4-(trifluoromethyl)phenyl]-2H,8H-pyrazolo[3,4-b]indole-5-carboxamide] fall in the same range of IC50: 100 to 10000 nM for the first, 100 to 10000 nM for the second.

Compared with `CCn1cc(CCNC(=O)c2ccc3c(c2)c2cn(C)nc2n3-c2ccc(C(F)(F)F)cc2)nn1` [B105^], `Cn1cc2c3cc(C(=O)NCCc4nncn4C4CC4)ccc3n(-c3ccc(C(F)(F)F)cc3)c2n1` [B110^] is higher in IC50: 100 to 10000 nM for the first, greater than 10000 nM for the second.

`Cn1cc2c3cc(C(=O)O)ccc3n(-c3ccc(Cl)cc3)c2n1` [Example 13, 8-(4-chlorophenyl)-2-methyl-2H,8H-pyrazolo[3,4-b]indole-5-carboxylic acid] and `Cn1cc2c3cc(C(=O)N[C@@H]4C[C@H](O)c5ccccc54)ccc3n(-c3ccc(C(F)(F)F)cc3)c2n1` (relative stereo) [Example B1, N-[(1R,3S)-3-hydroxy-2,3-dihydro-1H-inden-1-yl]-2-methyl-8-[4-(trifluoromethyl)phenyl]-2H,8H-pyrazolo[3,4-b]indole-5-carboxamide] fall in the same range of IC50: 100 to 10000 nM for the first, 100 to 10000 nM for the second.

First: Cn1cc2c3cc(C(=O)NCCc4cccc(F)n4)ccc3n(-c3ccc(C(F)(F)F)cc3)c2n1 [Example B84, N-[2-(6-fluoropyridin-2-yl)ethyl]-2-methyl-8-[4-(trifluoromethyl)phenyl]-2H,8H-pyrazolo[3,4-b]indole-5-carboxamide]
Second: CC(CNC(=O)c1ccc2c(c1)c1cn(C)nc1n2-c1ccc(C(F)(F)F)cc1)c1ccc(F)cn1 (stereo not shown) [Example B92, N-[2-(5-fluoropyridin-2-yl)propyl]-2-methyl-8-[4-(trifluoromethyl)phenyl]-2H,8H-pyrazolo[3,4-b]indole-5-carboxamide]
The IC50 of the first is higher: greater than 10000 nM for the first, 100 to 10000 nM for the second. The second is the more potent here.

First: O=C(O)c1ccc2c(c1)c1cn(Cc3ccccc3)cc1n2-c1ccccc1 [Example 3, 2-Benzyl-4-phenyl-2H,4H-pyrrolo[3,4-b]indole-7-carboxylic acid]
Second: CC(CCn1cncn1)NC(=O)c1ccc2c(c1)c1cn(C)nc1n2-c1ccc(C(F)(F)F)cc1 (stereo not shown) [Example B90, 2-methyl-N-[4-(1H-1,2,4-triazol-1-yl)butan-2-yl]-8-[4-(trifluoromethyl)phenyl]-2H,8H-pyrazolo[3,4-b]indole-5-carboxamide]
The IC50 of the first is lower: 1 to 10 nM for the first, 10 to 100 nM for the second. The first is the more potent here.
